Reference: PubChem BioAssay AID330 (DTP/NCI, 2004)
Values joined by “and” are separate entries in the source; they are usually repeats but may differ in a detail not shown here. Identical values can stand only once. Inconclusive results and toxic doses are left out.

System: P388 leukemia ip, CD2F1 mice, survival T/C
Assay: NCI In Vivo Anticancer Drug Screen. Data for tumor model P388 Leukemia (intraperitoneal) in CD2F1 (CDF1) mice
Settings: endpoint: median survival time, higher = longer survival
How it was run: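 Mice carrying the transplanted tumor received test compound or vehicle. Survival was recorded in each group, and the value is the treated-group measurement divided by that of the vehicle-treated control group.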

[1] = dose: 50.0 mg/kg/injection, schedule: Q01DX005 (ip), vehicle: saline
[2] = dose: 100.0 mg/kg/injection, schedule: Q01DX005 (ip), vehicle: saline
[3] = dose: 200.0 mg/kg/injection, schedule: Q01DX005 (ip), vehicle: saline
[4] = dose: 100.0 mg/kg/injection, schedule: Q01DX001 (ip), vehicle: saline
[5] = dose: 200.0 mg/kg/injection, schedule: Q01DX001 (ip), vehicle: saline
[6] = dose: 25.0 mg/kg/injection, schedule: Q01DX005 (ip), vehicle: Klucel (hydroxypropylcellulose) (HPC)
[7] = dose: 50.0 mg/kg/injection, schedule: Q01DX005 (ip), vehicle: Klucel (hydroxypropylcellulose) (HPC)
[8] = dose: 100.0 mg/kg/injection, schedule: Q01DX005 (ip), vehicle: Klucel (hydroxypropylcellulose) (HPC)
[9] = dose: 50.0 mg/kg/injection, schedule: Q01DX009 (ip), vehicle: Klucel (hydroxypropylcellulose) (HPC)
[10] = dose: 100.0 mg/kg/injection, schedule: Q01DX009 (ip), vehicle: Klucel (hydroxypropylcellulose) (HPC)
[11] = dose: 200.0 mg/kg/injection, schedule: Q01DX005 (ip), vehicle: Klucel (hydroxypropylcellulose) (HPC)
[12] = dose: 50.0 mg/kg/injection, schedule: Q01DX009 (ip), vehicle: saline with Tween-80

C[CH2][Ge]([c]1ccccc1)[c]1ccccc1.C[CH2][Ge]([c]1ccccc1)[c]1ccccc1.c1cc[c]([Ge]([O][Ge]([c]2ccccc2)[c]2ccccc2)[c]2ccccc2)cc1
T/C [1]: 91 % of control | T/C [2]: 91 % of control | T/C [3]: 91 % of control

O=C(O)C1CSCN1c1cccc[n+]1[O-] (stereo not given)
T/C (dose: 25.0 mg/kg/injection, schedule: Q01DX005 (ip), vehicle: saline with Tween-80): 101 % of control | T/C (dose: 50.0 mg/kg/injection, schedule: Q01DX005 (ip), vehicle: saline with Tween-80): 102 % of control | T/C (dose: 100.0 mg/kg/injection, schedule: Q01DX005 (ip), vehicle: saline with Tween-80): 99 % of control

C=C(C)c1nc(NCC)nc(NCC)n1
T/C (dose: 100.0 mg/kg/injection, schedule: Q01DX001 (ip), vehicle: Klucel (hydroxypropylcellulose) (HPC)): 94 % of control | T/C (dose: 200.0 mg/kg/injection, schedule: Q01DX001 (ip), vehicle: Klucel (hydroxypropylcellulose) (HPC)): 90 % of control | T/C (dose: 400.0 mg/kg/injection, schedule: Q01DX001 (ip), vehicle: Klucel (hydroxypropylcellulose) (HPC)): 92 % of control

C[Si](C)(C)Cn1cc(F)c(=O)n(C[Si](C)(C)C)c1=O
T/C (dose: 60.0 mg/kg/injection, schedule: Q01DX005 (ip), vehicle: Klucel (hydroxypropylcellulose) (HPC)): 103 % of control | T/C (dose: 120.0 mg/kg/injection, schedule: Q01DX005 (ip), vehicle: Klucel (hydroxypropylcellulose) (HPC)): 103 % of control | T/C (dose: 240.0 mg/kg/injection, schedule: Q01DX005 (ip), vehicle: Klucel (hydroxypropylcellulose) (HPC)): 97 % of control

CC(C)OCc1cccc2ccnc(COC(C)C)c12
T/C [4]: 102 % of control | T/C [5]: 100 % of control | T/C (dose: 400.0 mg/kg/injection, schedule: Q01DX001 (ip), vehicle: saline): 95 % of control

c1ccc2c(c1)[nH]c1c2c(N2CCOCC2)nn2cnnc12
T/C (dose: 6.25 mg/kg/injection, schedule: Q01DX005 (ip), vehicle: Klucel (hydroxypropylcellulose) (HPC)): 101 % of control | T/C (dose: 12.5 mg/kg/injection, schedule: Q01DX005 (ip), vehicle: Klucel (hydroxypropylcellulose) (HPC)): 100 % of control | T/C [6]: 89 % of control | T/C [7]: 99 % of control | T/C (dose: 60.0 mg/kg/injection, schedule: Q01DX005 (ip), vehicle: saline with Tween-80): 95 % of control | T/C [8]: 100 % of control | T/C (dose: 120.0 mg/kg/injection, schedule: Q01DX005 (ip), vehicle: saline with Tween-80): 93 % of control | T/C (dose: 240.0 mg/kg/injection, schedule: Q01DX005 (ip), vehicle: saline with Tween-80): 98 % of control

CCCCN(CCC#N)c1ccc(/C=C/c2ccnc3ccccc23)cc1
T/C (dose: 25.0 mg/kg/injection, schedule: Q01DX009 (ip), vehicle: Klucel (hydroxypropylcellulose) (HPC)): 96 % of control | T/C [9]: 96 % of control

Nc1ncnc2nc(CO)[nH]c12
T/C (dose: 0.78 mg/kg/injection, schedule: Q01DX009 (ip), vehicle: saline with Tween-80): 100 % of control | T/C (dose: 1.56 mg/kg/injection, schedule: Q01DX009 (ip), vehicle: saline with Tween-80): 97 % of control | T/C (dose: 3.13 mg/kg/injection, schedule: Q01DX009 (ip), vehicle: saline with Tween-80): 93 % of control | T/C (dose: 6.25 mg/kg/injection, schedule: Q01DX009 (ip), vehicle: saline with Tween-80): 91 % of control

O=c1[nH]c(=O)n(C2CC(O)C(CO)O2)cc1F (stereo not given)
T/C (dose: 10.0 mg/kg/injection, schedule: Q01DX010 (ip), vehicle: saline): 163 % of control | T/C (dose: 12.5 mg/kg/injection, schedule: Q04DX002 (ip), vehicle: water): 108 % of control | T/C (dose: 20.0 mg/kg/injection, schedule: Q01DX009 (ip), vehicle: saline): 155 % of control | T/C (dose: 20.0 mg/kg/injection, schedule: Q01DX010 (ip), vehicle: saline): 181 % of control | T/C (dose: 38.0 mg/kg/injection, schedule: Q01DX009 (ip), vehicle: saline): 160 % of control | T/C (dose: 40.0 mg/kg/injection, schedule: Q01DX009 (ip), vehicle: saline): 117 % of control | T/C (dose: 40.0 mg/kg/injection, schedule: Q01DX010 (ip), vehicle: saline): 222 % of control | T/C (dose: 49.0 mg/kg/injection, schedule: Q01DX009 (ip), vehicle: saline): 159 % of control and 167 % of control | T/C [1]: 114 % of control | T/C (dose: 56.0 mg/kg/injection, schedule: Q01DX009 (ip), vehicle: saline): 123 % of control | T/C (dose: 75.0 mg/kg/injection, schedule: Q01DX009 (ip), vehicle: saline): 185 % of control | T/C (dose: 80.0 mg/kg/injection, schedule: Q01DX009 (ip), vehicle: saline): 92 % of control | T/C [4]: 110 % of control | T/C [2]: 98 % of control | T/C (dose: 110.0 mg/kg/injection, schedule: Q01DX009 (ip), vehicle: saline): 103 % of control | T/C (dose: 120.0 mg/kg/injection, schedule: Q01DX009 (ip), vehicle: saline): 81 % of control | T/C (dose: 180.0 mg/kg/injection, schedule: Q01DX009 (ip), vehicle: saline): 83 % of control | T/C [5]: 111 % of control | T/C [3]: 95 % of control | T/C (dose: 240.0 mg/kg/injection, schedule: Q04DX002 (ip), vehicle: saline): 157 % of control | T/C (dose: 350.0 mg/kg/injection, schedule: Q04DX003 (ip), vehicle: saline): 168 % of control | T/C (dose: 400.0 mg/kg/injection, schedule: Q04DX002 (ip), vehicle: saline): 164 % of control | T/C (dose: 400.0 mg/kg/injection, schedule: Q04DX003 (ip), vehicle: saline): 100 % of control

CCN(CC)CCCC(CO)Nc1ccnc2cc(Cl)ccc12 (stereo not given)
T/C [9]: 104 % of control and 100 % of control | T/C [10]: 96 % of control and 98 % of control

NC1(c2ccccc2)CON=C(c2ccccc2)C1 (stereo not given)
T/C (dose: 6.25 mg/kg/injection, schedule: Q04DX003 (ip), vehicle: saline): 109 % of control | T/C (dose: 12.5 mg/kg/injection, schedule: Q04DX003 (ip), vehicle: saline): 104 % of control | T/C (dose: 25.0 mg/kg/injection, schedule: Q04DX003 (ip), vehicle: saline): 102 % of control | T/C (dose: 100.0 mg/kg/injection, schedule: Q04DX003 (ip), vehicle: saline): 100 % of control

CC1CC(c2ccccc2)(c2ccccc2)C(=O)C(C)N1C (stereo not given)
T/C [7]: 107 % of control | T/C [8]: 105 % of control | T/C [11]: 97 % of control

O=C1Nc2ccccc2/C1=N/N=C/c1ccccc1O
T/C [9]: 91 % of control | T/C [10]: 86 % of control

CC1=NN(C(=O)c2ccccc2)C(=O)C1N=Nc1ccc(C(=O)O)cc1 (stereo not given)
T/C [6]: 110 % of control | T/C [7]: 95 % of control | T/C [8]: 104 % of control | T/C [11]: 99 % of control

CNc1c(F)c(C#N)c(F)c(F)c1C#N
T/C (dose: 12.5 mg/kg/injection, schedule: Q01DX009 (ip), vehicle: saline with Tween-80): 96 % of control | T/C (dose: 25.0 mg/kg/injection, schedule: Q01DX009 (ip), vehicle: saline with Tween-80): 89 % of control | T/C [12]: 100 % of control

Cc1nn(C(=S)S)c(C)c1N=Nc1cccc(Cl)c1Cl
T/C (dose: 100.0 mg/kg/injection, schedule: Q01DX001 (ip), vehicle: saline with Tween-80): 91 % of control | T/C (dose: 200.0 mg/kg/injection, schedule: Q01DX001 (ip), vehicle: saline with Tween-80): 94 % of control | T/C (dose: 400.0 mg/kg/injection, schedule: Q01DX001 (ip), vehicle: saline with Tween-80): 108 % of control

O=c1oc(-c2cccc(C[n+]3ccccc3)c2)nc2cc(Cl)ccc12
T/C (dose: 15.0 mg/kg/injection, schedule: Q01DX005 (ip), vehicle: saline): 98 % of control | T/C (dose: 30.0 mg/kg/injection, schedule: Q01DX005 (ip), vehicle: saline): 100 % of control | T/C (dose: 60.0 mg/kg/injection, schedule: Q01DX005 (ip), vehicle: saline): 102 % of control and 110 % of control

CCC[CH2][Sn]([CH2]CCC)([O]C(C)=O)[c]1ccccc1
T/C (dose: 1.56 mg/kg/injection, schedule: Q01DX009 (ip), vehicle: saline): 97 % of control | T/C (dose: 3.12 mg/kg/injection, schedule: Q01DX009 (ip), vehicle: saline): 103 % of control | T/C (dose: 6.25 mg/kg/injection, schedule: Q01DX009 (ip), vehicle: saline): 96 % of control | T/C (dose: 50.0 mg/kg/injection, schedule: Q01DX009 (ip), vehicle: saline): 97 % of control | T/C (dose: 100.0 mg/kg/injection, schedule: Q01DX009 (ip), vehicle: saline): 95 % of control | T/C (dose: 200.0 mg/kg/injection, schedule: Q01DX009 (ip), vehicle: saline): 100 % of control

CCC(C)CCC(=O)O (stereo not given)
T/C [12]: 98 % of control | T/C (dose: 100.0 mg/kg/injection, schedule: Q01DX009 (ip), vehicle: saline with Tween-80): 97 % of control | T/C (dose: 200.0 mg/kg/injection, schedule: Q01DX009 (ip), vehicle: saline with Tween-80): 99 % of control
